Measured values from patent US20250066389A1, “HETEROCYCLIC AMIDES AND METHODS OF USING THE SAME” (Rgenta Therapeutics, Inc., priority 2021, published 2025).

These molecules were tested on PMS1 (assay: Mini-Gene Reporter Assay—PMS1 (firefly luciferase mini-gene reporter transiently transfected into HEK293 cells)). Settings: Homo sapiens; at 5 uM; mini-gene firefly luciferase reporter in HEK293 cells; read-out: PMS1 % Effect at 5 uM.
Format: cell-based
Summary of the method: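 Luminescence (RLU) read-out of exon inclusion: compound dilutions, tested in duplicate, act on transiently transfected HEK293 cells carrying a firefly luciferase reporter fused downstream of the PMS1 skipped-exon region. Potency derived by Levenberg-Marquardt curve fitting, with percent effect at 5 μM.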
`CCOc1cn2nc(C)cc2cc1C(=O)Nc1cnc(N2CCC(N)CC2)cn1` [Compound 557] showed an activation at 5 µM greater than 75%.
`CCOc1cn2nc(C)cc2cc1C(=O)Nc1cnc(N(C)C2CCNCC2)cn1` [Compound 558] showed an activation at 5 µM greater than 75%.
`CCOc1cn2nc(C)cc2cc1C(=O)Nc1cnc(NC2CCNCC2)cn1` [Compound 559] showed an activation at 5 µM greater than 75%.
Molecule `CCOc1cn2nc(C)cc2cc1C(=O)Nc1cnc(N2CCCNCC2)cn1` [Compound 561] has an activation at 5 µM greater than 75%.
`CCOc1cn2nc(C)cc2cc1C(=O)Nc1cnc(NCC2C=CCN2)nc1` (stereo not drawn) [Compound 562] gave an activation at 5 µM of less than 50%.
`CCOc1cn2nc(C)cc2cc1C(=O)Nc1cnc(NCCCC2CCCN2)nc1` (stereo not drawn) [Compound 563] was tested, and the activation at 5 µM was less than 50%.
For `CCOc1cn2nc(C)cc2cc1C(=O)Nc1cnc(N2CCC(N)(CC)CC2)nc1` [Compound 564], the activation at 5 µM was less than 50%.
Molecule `CCOc1cn2nc(C)cc2cc1C(=O)Nc1cnc(NCC2CNC(C)C2)nc1` (stereo not drawn) [Compound 566] has an activation at 5 µM of less than 50%.
Work on `CCOc1cn2nc(C)cc2cc1C(=O)Nc1cnc(NCCC2CC(F)(F)CN2)nc1` (stereo not drawn) [Compound 567] yielded an activation at 5 µM of less than 50%.
`CCOc1cn2nc(C)cc2cc1C(=O)Nc1cnc(N2CCC(N)(c3cccc(F)c3)C2)nc1` (stereo not drawn) [Compound 568] gave an activation at 5 µM of less than 50%.
With `CCOc1cn2nc(C)cc2cc1C(=O)Nc1cnc(NCC(N)c2cc(F)cc(Cl)c2)nc1` (stereo not drawn) [Compound 569] the activation at 5 µM was less than 50%.
With `CCOc1cn2nc(C)cc2cc1C(=O)Nc1cnc(NCC(N)c2ccc(F)cc2)nc1` (stereo not drawn) [Compound 570] the activation at 5 µM was less than 50%.
`CCOc1cn2nc(C)cc2cc1C(=O)Nc1cnc(N2CC(N)C(C)(C)C2)nc1` (stereo not drawn) [Compound 571] gave an activation at 5 µM of less than 50%.
`CCOc1cn2nc(C)cc2cc1C(=O)Nc1cnc(N2CCC3(CNCCO3)C2)nc1` (stereo not drawn) [Compound 572] gave an activation at 5 µM of less than 50%.
For `CCOc1cn2nc(C)cc2cc1C(=O)Nc1cnc(N2CCCC(C)(CN)C2)nc1` (stereo not drawn) [Compound 573], the activation at 5 µM was less than 50%.
Work on `CCOc1cn2nc(C)cc2cc1C(=O)Nc1cnc(N2CCCC2CNC)nc1` (stereo not drawn) [Compound 574] yielded an activation at 5 µM of less than 50%.
`CCOc1cn2nc(C)cc2cc1C(=O)Nc1cnc(N(C)C[C@H]2CCCN2)nc1` [Compound 575] showed an activation at 5 µM of less than 50%.
In the case of `CCOc1cn2nc(C)cc2cc1C(=O)Nc1cnc(N(C)C[C@@H]2CCCN2)nc1` [Compound 576], the activation at 5 µM is reported as less than 50%.
Work on `CCOc1cn2nc(C)cc2cc1C(=O)Nc1cnc(N2CCOC3(CCNC3)C2)nc1` (stereo not drawn) [Compound 577] yielded an activation at 5 µM of less than 50%.
With `CCOc1cn2nc(C)cc2cc1C(=O)Nc1cnc(N2CCCC3(CCNC3)C2)nc1` (stereo not drawn) [Compound 578] the activation at 5 µM was less than 50%.
`CCOc1cn2nc(C)cc2cc1C(=O)Nc1cnc(N2CCC3(CCCN3)CC2)nc1` [Compound 579] was tested, and the activation at 5 µM was greater than 75%.
For `CCOc1cn2nc(C)cc2cc1C(=O)Nc1cnc(N(C)CC2CCCN2)nc1` (stereo not drawn) [Compound 581], the activation at 5 µM was less than 50%.
In the case of `CCOc1cn2nc(C)cc2cc1C(=O)Nc1cnc(N(C)CCN2CCNCC2)nc1` [Compound 582], the activation at 5 µM is reported as less than 50%.
Molecule `CCOc1cn2nc(C)cc2cc1C(=O)Nc1cnc(N(C)CC2CCNC2)nc1` (stereo not drawn) [Compound 583] has an activation at 5 µM of less than 50%.
`CCOc1cn2nc(C)cc2cc1C(=O)Nc1cnc(N2CCC3(CC2)CNCCO3)nc1` [Compound 584] showed an activation at 5 µM of less than 50%.
`CCOc1cn2nc(C)cc2cc1C(=O)Nc1cnc(N2CCOC3(CCNCC3)C2)nc1` [Compound 587] showed an activation at 5 µM of less than 50%.
`CCOc1cn2nc(C)cc2cc1C(=O)Nc1cnc(NCCC2CCCCN2)nc1` (stereo not drawn) [Compound 588] was tested, and the activation at 5 µM was less than 50%.
`CCOc1cn2nc(C)cc2cc1C(=O)Nc1cnc(N2C[C@H]3CNC[C@H]3C2)nc1` [Compound 590] was tested, and the activation at 5 µM was greater than 75%.
With `CCOc1cn2nc(C)cc2cc1C(=O)Nc1cnc(N2CCCC(NC)C2)nc1` (stereo not drawn) [Compound 591] the activation at 5 µM was less than 50%.
Molecule `CCOc1cn2nc(C)cc2cc1C(=O)Nc1cnc(NCCNC)nc1` [Compound 592] has an activation at 5 µM of less than 50%.
Work on `CCOc1cn2nc(C)cc2cc1C(=O)Nc1cnc(NC[C@H]2CCCN2)nc1` [Compound 593] yielded an activation at 5 µM of less than 50%.
In the case of `CCOc1cn2nc(C)cc2cc1C(=O)Nc1cnc(N2CCNCC2)nc1` [Compound 594], the activation at 5 µM is reported as 50 to 75%.
`CCOc1cn2nc(C)cc2cc1C(=O)Nc1cnc(N2CC(N)C2)nc1` [Compound 595] showed an activation at 5 µM of less than 50%.
In the case of `CCOc1cn2nc(C)cc2cc1C(=O)Nc1cnc(N2CCN[C@@H](C)C2)nc1` [Compound 596], the activation at 5 µM is reported as 50 to 75%.
Molecule `CCOc1cn2nc(C)cc2cc1C(=O)Nc1cnc(N2CCC(N)CC2)nc1` [Compound 597] has an activation at 5 µM of less than 50%.
`CCOc1cn2nc(C)cc2cc1C(=O)Nc1cnc(NCC2CCCNC2)nc1` (stereo not drawn) [Compound 598] was tested, and the activation at 5 µM was less than 50%.
With `CCOc1cn2nc(C)cc2cc1C(=O)Nc1cnc(N(C)CCNC)nc1` [Compound 599] the activation at 5 µM was less than 50%.
In the case of `CCOc1cn2nc(C)cc2cc1C(=O)Nc1cnc(N2CCCNCC2)nc1` [Compound 600], the activation at 5 µM is reported as less than 50%.
With `CCOc1cn2nc(C)cc2cc1C(=O)Nc1cnc(N2CCCC(CCC3CCCNC3)C2)nc1` (stereo not drawn) [Compound 603] the activation at 5 µM was less than 50%.
With `CCOc1cn2nc(C)cc2cc1C(=O)Nc1cnc(N2CCNCC3(CC3)C2)nc1` [Compound 604] the activation at 5 µM was less than 50%.
With `CCOc1cn2nc(C)cc2cc1C(=O)Nc1cnc(N2CC3C4CCC(NC4)C3C2)nc1` (stereo not drawn) [Compound 605] the activation at 5 µM was less than 50%.
`CCOc1cn2nc(C)cc2cc1C(=O)Nc1cnc(N2CCC(C3NCC3(C)C)CC2)nc1` (stereo not drawn) [Compound 606] was tested, and the activation at 5 µM was less than 50%.
Molecule `CCOc1cn2nc(C)cc2cc1C(=O)Nc1cnc(N2CCC(CCN3CCNCC3)CC2)nc1` [Compound 607] has an activation at 5 µM of less than 50%.
`CCOc1cn2nc(C)cc2cc1C(=O)Nc1cnc(N2CCNC(CS(C)(=O)=O)C2)nc1` (stereo not drawn) [Compound 608] gave an activation at 5 µM of less than 50%.
For `CCOc1cn2nc(C)cc2cc1C(=O)Nc1cnc(N2CCC(C(O)C3CCNCC3)CC2)nc1` (stereo not drawn) [Compound 609], the activation at 5 µM was less than 50%.
With `CCOc1cn2nc(C)cc2cc1C(=O)Nc1cnc(N2CCC(C3CCCNC3)CC2)nc1` (stereo not drawn) [Compound 610] the activation at 5 µM was less than 50%.
In the case of `CCOc1cn2nc(C)cc2cc1C(=O)Nc1cnc(N2CCC3CCNCC3C2)nc1` (stereo not drawn) [Compound 611], the activation at 5 µM is reported as less than 50%.
Molecule `CCOc1cn2nc(C)cc2cc1C(=O)Nc1cnc(N2CC(NC)C3(CC3)C2)nc1` (stereo not drawn) [Compound 612] has an activation at 5 µM of less than 50%.
`CCOc1cn2nc(C)cc2cc1C(=O)Nc1cnc(N2CCOC3(CCCNC3)C2)nc1` (stereo not drawn) [Compound 613] showed an activation at 5 µM of less than 50%.
For `CCOc1cn2nc(C)cc2cc1C(=O)Nc1cnc(N2CCC(CC[C@@H]3CCCN3)CC2)nc1` [Compound 615], the activation at 5 µM was less than 50%.
With `CCOc1cn2nc(C)cc2cc1C(=O)Nc1cnc(N2CC[C@@H](C)[C@@H](NC)C2)nc1` [Compound 617] the activation at 5 µM was less than 50%.
`CCOc1cn2nc(C)cc2cc1C(=O)Nc1cnc(N2CCC(COC3CCNC3)CC2)nc1` (stereo not drawn) [Compound 618] gave an activation at 5 µM of less than 50%.
For `CCOc1cn2nc(C)cc2cc1C(=O)Nc1cnc(N2CC[C@@H]3CNC[C@@H]3CC2)nc1` [Compound 619], the activation at 5 µM was less than 50%.
`CCNCC1CCN(c2ncc(NC(=O)c3cc4cc(C)nn4cc3OCC)cn2)CC1` [Compound 623] showed an activation at 5 µM of less than 50%.
Molecule `CCOc1cn2nc(C)cc2cc1C(=O)Nc1cnc(N2CC3(CCNCC3)C2)nc1` [Compound 625] has an activation at 5 µM of 50 to 75%.
For `CCOc1cc2nc(C)cn2cc1C(=O)Nc1cnc(N2CCC(N)(CC)CC2)nc1` [Compound 639], the activation at 5 µM was greater than 75%.
Work on `CCOc1cc2nc(C)cn2cc1C(=O)Nc1cnc(N2CC(C)NCC2C)nc1` (stereo not drawn) [Compound 644] yielded an activation at 5 µM of 50 to 75%.
`CCOc1cc2nc(C)cn2cc1C(=O)Nc1cnc(N2C[C@H]3CNC[C@H]3C2)nc1` [Compound 646] gave an activation at 5 µM of 50 to 75%.
`CCOc1cc2nc(C)cn2cc1C(=O)Nc1cnc(N2CCC(NC)CC2)nc1` [Compound 648] was tested, and the activation at 5 µM was less than 50%.
With `CCOc1cc2nc(C)cn2cc1C(=O)Nc1cnc(N(C)C2CCNCC2)nc1` [Compound 649] the activation at 5 µM was 50 to 75%.
With `CCOc1cc2nc(C)cn2cc1C(=O)Nc1cnc(N2CCCNCC2)nc1` [Compound 653] the activation at 5 µM was less than 50%.
`CCOc1cc2nc(C)cn2cc1C(=O)Nc1cnc(N2CCNC(C)C2)nc1` (stereo not drawn) [Compound 654] was tested, and the activation at 5 µM was greater than 75%.
Molecule `CCOc1cc2nc(C)cn2cc1C(=O)Nc1cnc(NCC2CCNC23CCC3)cn1` (stereo not drawn) [Compound 659] has an activation at 5 µM greater than 75%.
In the case of `CCOc1cc2nc(C)cn2cc1C(=O)Nc1cnc(N2CC(O)(CNC)C2)cn1` [Compound 662], the activation at 5 µM is reported as greater than 75%.
`CCOc1cc2nc(C)cn2cc1C(=O)Nc1cnc(NC2CNC(C)(C)C2)cn1` (stereo not drawn) [Compound 663] was tested, and the activation at 5 µM was greater than 75%.
Work on `CCOc1cc2nc(C)cn2cc1C(=O)Nc1cnc(N2CC(C3CNC3)C2)cn1` [Compound 664] yielded an activation at 5 µM greater than 75%.
`CCOc1cc2nc(C)cn2cc1C(=O)Nc1cnc(N[C@@H]2CNC[C@@H]2F)cn1` [Compound 666] was tested, and the activation at 5 µM was 50 to 75%.
Molecule `CCOc1cc2nc(C)cn2cc1C(=O)Nc1cnc(N2CC(N)C(C)(C)C2)cn1` (stereo not drawn) [Compound 667] has an activation at 5 µM greater than 75%.
In the case of `CCOc1cc2nc(C)cn2cc1C(=O)Nc1cnc(NCCC2CNCC(C)O2)cn1` (stereo not drawn) [Compound 669], the activation at 5 µM is reported as less than 50%.
In the case of `CCOc1cc2nc(C)cn2cc1C(=O)Nc1cnc(N2CC[C@@H](C)[C@@H](NC)C2)cn1` [Compound 671], the activation at 5 µM is reported as less than 50%.
`CCOc1cc2nc(C)cn2cc1C(=O)Nc1cnc(N2C[C@@H](F)C[C@H]2CN)cn1` [Compound 672] showed an activation at 5 µM of 50 to 75%.
Work on `CCOc1cc2nc(C)cn2cc1C(=O)Nc1cnc(N2CCC3(CNCCO3)C2)cn1` (stereo not drawn) [Compound 673] yielded an activation at 5 µM of less than 50%.
For `CCOc1cc2nc(C)cn2cc1C(=O)Nc1cnc(NCC2(F)CCNC2)cn1` (stereo not drawn) [Compound 674], the activation at 5 µM was 50 to 75%.
Work on `CCOc1cc2nc(C)cn2cc1C(=O)Nc1cnc(N2CCOC3(CCNC3)C2)cn1` (stereo not drawn) [Compound 676] yielded an activation at 5 µM of 50 to 75%.

Same assay, conditions: Homo sapiens; mini-gene firefly luciferase reporter in HEK293 cells
Molecule `COc1cc2nc(C)cn2cc1C(=O)Nc1ccc(N2CCNCC2C(F)F)cc1F` (stereo not drawn) [Compound 627] has an IC50 of 1000 to 10000 nM.
Molecule `COc1cc2nc(C)cn2cc1C(=O)Nc1ccc(N2C[C@@H]3C[C@H]2CN3)cc1F` [Compound 628] has an IC50 of less than 1000 nM.
`COc1cc2nc(C)cn2cc1C(=O)Nc1ccc(N2CC[C@@H]3NCC[C@@H]3C2)cc1F` [Compound 629] gave an IC50 of less than 1000 nM.
Work on `COc1cc2nc(C)cn2cc1C(=O)Nc1ccc(N2C[C@H]3CNCC[C@H]3C2)cc1F` [Compound 630] yielded an IC50 of less than 1000 nM.
